The record followed here is patent publication US20080242600A1, “Backbone Cyclized Melanocortin Stimulating Hormone (Alpha Msh) Analogs” (priority 2005, published 2008).

The term IC50 denotes the concentration that gives 50% inhibition.

Data set [1] has as its target T1, MC4R (Homo sapiens, UniProt P32245).
T1 construct: expressed in transfected cells; host or cells: CHO cells
The data set can be described thus: Determination of receptor activation (cAMP accumulation assay). It counts as cell-based. The procedure:
cAMP Accumulation Assays: 48 h after transfection, CHO cells are washed once with PBS and then detached from the plate with PBS containing 0.02% EDTA (Sigma). The detached cells are harvested by centrifugation and resuspended in Hanks' balanced salt solution (Invitrogen) containing 0.5 mM IBMX, 2 mM HEPES, pH 7.5 (IBMX buffer). After incubation at 37° C. for 15 min to allow for IBMX uptake, 0.4 ml of cell suspension (5×10^5 cells/ml) is added to 0.1 ml of IBMX buffer containing various concentrations of agonists or 10 μM forskolin. The cells are subsequently incubated at 37° C. for 15 min to allow for cAMP accumulation. The activity is terminated by adding 0.5 ml of 5% trichloroacetic acid, and cAMP released from lysed cells is assayed by the cAMP ^125I scintillation proximity assay system (Amersham Biosciences).
EC50 values are calculated with a 95% confidence interval using GraphPad Prism software (using nonlinear regression analysis fitted with a sigmoidal dose-response curve with variable slope).

Data set [2] has as its target T1, MC4R. The data set is described as follows: Receptor binding assay (IC50 on the MC4R). From the text: The analogs can be further tested in vitro for their influence on cyclic adenosine monophosphate (cAMP) levels. Intestinal permeability and metabolic stability of the analogs can be tested in vivo. The analogs can be further tested in vivo in preclinical models in order to identify the optimal mode of administration and proper dose, and to verify the safety and the efficacy of these new potential therapeutic drugs.
Transfected CHO cells are washed with binding buffer 8 and distributed into 96-well plates (approximately 40,000 cells/well). […] NDP-α-MSH and appropriate concentrations of an unlabelled ligand. After incubation, the cells are washed with 0.2 ml of ice-cold binding buffer and detached from the plates with 0.2 ml of 0.1 N NaOH. Radioactivity is counted (Wallac, Wizard automatic gamma counter) and data analyzed with a software package for radioligand binding analyses (Wan System, Umea, Sweden) by fitting it to formulas derived from the law of mass-action by the method generally referred to as computer modeling. The binding assays are performed in duplicate wells.

A short description of data set [3]: Assessment of intestinal metabolic stability in brush border membrane vesicles. In kind it is in vitro ADME. Conditions: rat intestinal brush border membranes. As to the method:
Brush-border membrane vesicles (BBMVs) were prepared from combined duodenum, jejunum, and upper ileum by a Ca++precipitation method (PEERCE). The intestines of 5 male Wistar rats, 200-250 g, were rinsed with ice cold 0.9% Nacl and freed of mucos, the mucosa was scraped off the luminal surface with glass slides and put immediately into buffer containing […] Kcl and 10 mM Tris-HCl (pH 7.5, 4° C.) and the mixture homogenated by Ploytron (Polytron PT 1200, Kinematica AG, Switzerland). CaCl was added to a final concentration of 10 mM. The homogenate was left shaking for 30 min at 4° C. and afterwards centrifuged at 10,000 g for 10 min (centrifuge) the supernatant was then centrifuged at 48,000 g for 30 min an additional two purification steps were undertaken by suspending the pellet in 300 mM mannitol and 10 mM Hepes/Tris (pH 7.5) and centrifuge 24,000 g/hr. Purification of brush border membranes was assayed using the brush border membrane enzyme markers GGT, LAP and alkaline phosphatase. During the course of these studies, enrichment in brush border membrane enzymes varied between 13- and 18-fold.

For the next data set, the system named is ICR:Hsd (CD-1) male mice. The data set is described as follows: Effect of orally administered BBC-1 on food consumption in normal mice. It counts as in vivo. The procedure: ICR:Hsd (CD-1) male mice, 7-8 weeks old, were raised in separate cages and maintained at 23±1° C. on a 12-hr light, 12-hr dark cycle (0700-1900 hr light). Mice were allowed ad libitum access to water and standard chow pellets. Upon arrival mice were allowed to acclimate for 1 week. Following fasting for 16 hours, the animals (n=8) were subjected to a single oral gavage (PO, 5 ml/kg) of BBC1 (100 μg/ml, 1000 μg/ml) or vehicle (water). Immediately after administration, fixed food doses were added and re-weighed after 1, 2, 3, 4, 5, 8 and 24 hours.

Entries after “also recorded” stand apart in the source; their conditions may differ. *1 amine or outer side, *2 acyl side, *3 side chain or, on linkers, in order; H or OH if unused. Where a SMILES comes first, the peptide text is derived from it. Bridges are numbered along the chain shown (N, C = ends). [ ]: non-standard residue; d: D form. NGly(3-aminopropyl) = O=C(CN(CCCN[*:3])[*:1])[*:2]; N(2-Aminoethyl)Gly = O=C(CN(CCN[*:3])[*:1])[*:2]; Heptanedioyl = O=C(CCCCCC(=O)[*:2])[*:1]; Adipoyl = O=C(CCCCC(=O)[*:2])[*:1]; Glutaryl = O=C(CCCC(=O)[*:2])[*:1]; Suc = O=C(CCC(=O)[*:2])[*:1]; Nlys = NCCCCNCC(=O)O

T1 sequence (P32245 whole entry, species assumed): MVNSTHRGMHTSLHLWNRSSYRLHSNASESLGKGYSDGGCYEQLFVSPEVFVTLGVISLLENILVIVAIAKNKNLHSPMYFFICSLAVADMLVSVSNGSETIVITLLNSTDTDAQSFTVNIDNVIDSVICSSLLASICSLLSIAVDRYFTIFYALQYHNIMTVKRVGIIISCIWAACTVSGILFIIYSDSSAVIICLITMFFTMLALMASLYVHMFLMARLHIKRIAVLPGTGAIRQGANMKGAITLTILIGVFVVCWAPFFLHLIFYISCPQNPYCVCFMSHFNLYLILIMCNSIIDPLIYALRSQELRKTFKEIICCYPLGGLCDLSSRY

On to `N=C(N)NCCC[C@@H]1NC(=O)[C@@H](Cc2ccccc2)NC(=O)[C@H](Cc2ccccc2)NC(=O)CCC(=O)NCCN(CC(N)=O)C(=O)[C@H](Cc2c[nH]c3ccccc23)NC1=O` [BBC1] (F[dF]RW[N(2-Aminoethyl)Gly]-NH2; linker N-5 via Suc), for which the “MC4R functionality and selectivity” value on MC4R [1] is “highly functional and selective; also recorded: specific activation of MC4R”. This compound came in with an IC50 on MC4R [2] of 90 nM. The intestinal metabolic stability result in data set [3] is “high and enzymatically stable”. In addition, the “food consumption (in words)” value with ICR:Hsd (CD-1) male mice (single oral administration, 24 hours) is recorded as “decreased food consumption”. The “reduction of food consumption” value in the data set with ICR:Hsd (CD-1) male mice (single oral administration, over a period of 24 hr) was ~40%. The “clinical signs post administration” value with ICR:Hsd (CD-1) male mice (single oral gavage, following 24 hours) is “did not show any special clinical signs”. Turning to `N=C(N)NCCC[C@@H]1NC(=O)[C@@H](Cc2ccccc2)NC(=O)[C@H](Cc2ccccc2)NC(=O)CCCC(=O)NCCCN(CC(N)=O)C(=O)[C@H](Cc2c[nH]c3ccccc23)NC1=O` [BBC6] (F[dF]RW[NGly(3-aminopropyl)]-NH2; linker N-5 via Glutaryl), on MC4R [2], the IC50 is 110 nM.

Compound `N=C(N)NCCC[C@@H]1NC(=O)[C@@H](Cc2ccccc2)NC(=O)[C@H](Cc2ccccc2)NC(=O)CCCCCC(=O)NCCCN(CC(N)=O)C(=O)[C@H](Cc2c[nH]c3ccccc23)NC1=O` [BBC7] (F[dF]RW[NGly(3-aminopropyl)]-NH2; linker N-5 via Heptanedioyl) returned a half-inhibitory concentration (IC50) on MC4R [2] of 100 nM. In turn, `N=C(N)NCCC[C@@H]1NC(=O)[C@@H](Cc2ccccc2)NC(=O)[C@H](Cc2ccccc2)NC(=O)CCC(=O)NCCCN(CC(N)=O)C(=O)[C@H](Cc2c[nH]c3ccccc23)NC1=O` [BBC8] (F[dF]RW[NGly(3-aminopropyl)]-NH2; linker N-5 via Suc) returned an IC50 on MC4R [2] of 60 nM.

Turning to `N=C(N)NCCC[C@@H]1NC(=O)[C@@H](Cc2ccccc2)NC(=O)[C@H](Cc2ccccc2)NC(=O)CCCCCC(=O)NCCN(CC(N)=O)C(=O)[C@H](Cc2c[nH]c3ccccc23)NC1=O` [BBC9] (F[dF]RW[N(2-Aminoethyl)Gly]-NH2; linker N-5 via Heptanedioyl), the concentration for half-maximal inhibition (IC50) at MC4R [2] stood at 100 nM. `N=C(N)NCCC[C@@H]1NC(=O)[C@@H](Cc2ccccc2)NC(=O)[C@H](Cc2ccccc2)NC(=O)CCCCC(=O)NCCN(CC(N)=O)C(=O)[C@H](Cc2c[nH]c3ccccc23)NC1=O` [BBC10] (F[dF]RW[N(2-Aminoethyl)Gly]-NH2; linker N-5 via Adipoyl): the half-maximal inhibitory concentration (IC50) at MC4R [2] is 120 nM. With `N=C(N)NCCC[C@@H]1NC(=O)[C@@H](Cc2ccccc2)NC(=O)[C@H](Cc2ccccc2)NC(=O)CCCC(=O)NCCCCN(CC(N)=O)C(=O)[C@H](Cc2c[nH]c3ccccc23)NC1=O` [BBC12] (F[dF]RW[Nlys]-NH2; linker N-5 via Glutaryl), the 50% inhibitory concentration (IC50) at MC4R [2] was found to be 100 nM. The compound `N=C(N)NCCC[C@@H]1NC(=O)[C@@H](Cc2ccccc2)NC(=O)[C@H](Cc2ccccc2)NC(=O)CCCCC(=O)NCCCCN(CC(N)=O)C(=O)[C@H](Cc2c[nH]c3ccccc23)NC1=O` [BBC13] (F[dF]RW[Nlys]-NH2; linker N-5 via Adipoyl) displayed a half-maximal inhibitory concentration (IC50) at MC4R [2] of 100 nM. In turn, `N=C(N)NCCC[C@@H]1NC(=O)[C@@H](Cc2ccccc2)NC(=O)[C@H](Cc2ccccc2)NC(=O)CCCCC(=O)NCCCN(CC(N)=O)C(=O)[C@H](Cc2c[nH]c3ccccc23)NC1=O` [BBC15] (F[dF]RW[NGly(3-aminopropyl)]-NH2; linker N-5 via Adipoyl) yielded an IC50 at MC4R [2] of 60 nM.
